Reference: patent US20100204119A1, “4-AMINO-5-OXO-7,8-DIHYDROPYRIMIDO[5,4-F][1,4]OXAZEPIN-6(5H)-YL PHENYL DERIVATIVES” (Pfizer Inc, priority 2009, published 2010)
pIC50: −log10 of the molar value.

Biological target: T1, Human full-length diacylglycerol:acylCoA acyltransferase 1 (DGAT-1) (Homo sapiens, UniProt O75907)
T1 sequence (O75907 1-488): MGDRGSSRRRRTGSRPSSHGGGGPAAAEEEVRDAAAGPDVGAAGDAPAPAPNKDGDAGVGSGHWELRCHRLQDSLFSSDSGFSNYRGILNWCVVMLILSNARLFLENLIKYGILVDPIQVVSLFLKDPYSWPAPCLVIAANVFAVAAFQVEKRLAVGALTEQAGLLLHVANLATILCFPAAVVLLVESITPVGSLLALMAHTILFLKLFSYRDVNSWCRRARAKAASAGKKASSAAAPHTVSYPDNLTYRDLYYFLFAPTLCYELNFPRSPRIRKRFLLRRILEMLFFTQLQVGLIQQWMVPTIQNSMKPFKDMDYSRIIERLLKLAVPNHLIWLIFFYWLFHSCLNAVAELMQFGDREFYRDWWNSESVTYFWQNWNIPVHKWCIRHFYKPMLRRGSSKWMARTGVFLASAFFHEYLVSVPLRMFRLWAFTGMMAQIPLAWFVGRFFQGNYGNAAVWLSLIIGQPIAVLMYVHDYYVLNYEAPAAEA
Experiment: In vitro assay for inhibition of DGAT-1 activity (DGAT 1 Reduced Microsome Multidose Assay)
Conditions: average where n > 1

[1] = Trial 1 Human IC50, Trial 1: as Trial 4 except microsomes at 25 μg/mL instead of 5 μg/mL
[2] = Trial 2 Human IC50, Trial 2: as Trial 4 except eleven concentrations of inhibitor instead of eight
[3] = Trial 3 Human IC50, Trial 3: as Trial 2 except compounds serially diluted in a different laboratory

Method: Human full-length diacylglycerol:acylCoA acyltransferase 1 (DGAT-1) was expressed in Sf9 insect cells which are then lysed and a crude membrane fraction (105,000×g pellet) was prepared.
Inhibitors in DMSO were pre-incubated with membranes before initiating the DGAT-1 reaction by the addition of decanoylCoA. […] The inhibitors were present at a range of eight concentrations to generate an apparent IC50 for each compound. […] Specifically, the eight concentrations used were 3 μM, 1 μM, 300 nM, 100 nM, 30 nM, 10 nM, 3 nM and 1 nM.
The reactions were allowed to proceed for 1.5 hours at room temperature and then terminated by the addition of 20 μl of EDTA (40 mM). Reaction mixture is then mixed by trituration with 30 μl of Microscint™-E (Perkin Elmer). […] Four separate trials were conducted. The method of analysis of Trial 1 was the same as Trial 4 (described above) except microsomes were utilized at 25 μg/mL instead of 5 μg/mL. The method of analysis of Trial 2 was the same as Trial 4 (described above) except eleven (11) concentrations of inhibitor were employed instead of eight (8). The method of analysis of Trial 3 was the same as Trial 2 except the compounds were serially diluted in a different laboratory.
Where this DGAT-1 inhibition assay was performed on a compound more than once, an average is provided for that compound.

SMILES | pIC50 [1] | pIC50 [2] | pIC50 [3]
N#CC1CCN(C(=O)C[C@H]2CC[C@H](c3ccc(N4CCOc5ncnc(N)c5C4=O)cc3)CC2)CC1 [Example 6G] | 7.30 |  | 
CN(C(=O)C[C@H]1CC[C@H](c2ccc(N3CCOc4ncnc(N)c4C3=O)cc2)CC1)C1CCOCC1 [Example 6H] | 7.27 |  | 
COCC1CCN(C(=O)C[C@H]2CC[C@H](c3ccc(N4CCOc5ncnc(N)c5C4=O)cc3)CC2)CC1 [Example 6I] | 7.24 |  | 
COCCN(C)C(=O)C[C@H]1CC[C@H](c2ccc(N3CCOc4ncnc(N)c4C3=O)cc2)CC1 [Example 6J] | 7.29 |  | 
Nc1ncnc2c1C(=O)N(c1ccc([C@H]3CC[C@H](CC(=O)N4CCC(F)(F)CC4)CC3)cc1)CCO2 [Example 6L] | 6.98 |  | 
Nc1ncnc2c1C(=O)N(c1ccc([C@H]3CC[C@H](CC(=O)N4CCCC(CO)C4)CC3)cc1)CCO2 (some centres unmarked) [Example 6M] | 7.34 |  | 
CCN(CCCCO)C(=O)C[C@H]1CC[C@H](c2ccc(N3CCOc4ncnc(N)c4C3=O)cc2)CC1 [Example 6N] | 7.43 |  | 
Nc1ncnc2c1C(=O)N(c1ccc([C@H]3CC[C@H](CC(=O)N4CCC[C@@H](O)C4)CC3)cc1)CCO2 [Example 6O] | 6.79 |  | 
CC(O)C1CCN(C(=O)C[C@H]2CC[C@H](c3ccc(N4CCOc5ncnc(N)c5C4=O)cc3)CC2)CC1 (some centres unmarked) [Example 6P] | 7.41 |  | 
Cc1nnc2n1CCN(C(=O)C[C@H]1CC[C@H](c3ccc(N4CCOc5ncnc(N)c5C4=O)cc3)CC1)C2 [Example 6Q] | 6.62 |  | 
CCC1(CO)CCN(C(=O)C[C@H]2CC[C@H](c3ccc(N4CCOc5ncnc(N)c5C4=O)cc3)CC2)C1 (some centres unmarked) [Example 6R] | 7.76 |  | 
CC(=O)N[C@@H]1CCN(C(=O)C[C@H]2CC[C@H](c3ccc(N4CCOc5ncnc(N)c5C4=O)cc3)CC2)C1 [Example 6S] | 6.72 |  | 
Nc1ncnc2c1C(=O)N(c1ccc([C@H]3CC[C@H](CC(=O)N4CCC(CO)C4)CC3)cc1)CCO2 (some centres unmarked) [Example 6T] | 6.90 |  | 
CCN(C(=O)C[C@H]1CC[C@H](c2ccc(N3CCOc4ncnc(N)c4C3=O)cc2)CC1)C(C)(C)CO [Example 6U] | 6.89 |  | 
CCCCCN(CCO)C(=O)C[C@H]1CC[C@H](c2ccc(N3CCOc4ncnc(N)c4C3=O)cc2)CC1 [Example 6V] | 7.51 |  | 
CN(CCc1ccccn1)C(=O)C[C@H]1CC[C@H](c2ccc(N3CCOc4ncnc(N)c4C3=O)cc2)CC1 [Example 6W] | 7.11 |  | 
Nc1ncnc2c1C(=O)N(c1ccc([C@H]3CC[C@H](CC(=O)N4CCCC4CO)CC3)cc1)CCO2 (some centres unmarked) [Example 6X] | 7.00 |  | 
CC(=O)N1CCN(C(=O)C[C@H]2CC[C@H](c3ccc(N4CCOc5ncnc(N)c5C4=O)cc3)CC2)CC1 [Example 6Y] | 6.78 |  | 

SMILES | pIC50 [1] | pIC50 [2] | pIC50 [3]
CCN(C(=O)C[C@H]1CC[C@H](c2ccc(N3CCOc4ncnc(N)c4C3=O)cc2)CC1)[C@H](C)CO [Example 6Z] | 7.05 |  | 
Nc1ncnc2c1C(=O)N(c1ccc(C3CCN(C(=O)Cn4cccn4)CC3)cc1)CCO2 [Example 7AC] |  | 7.14 | 6.95
Nc1ncnc2c1C(=O)N(c1ccc(C3CCN(C(=O)CC4CCCC4)CC3)cc1)CCO2 [Example 7AE] |  | 7.39 | 7.03
CC(C)(C)OC(=O)N1CCC(c2ccc(N3CCOc4ncnc(N)c4C3=O)cc2)CC1 [Example 7B] |  | 7.26 | 7.52
C[C@H](O)CC(=O)N1CCC(c2ccc(N3CCOc4ncnc(N)c4C3=O)cc2)CC1 [Example 7D] |  | 7.01 | 6.57
Nc1ncnc2c1C(=O)N(c1ccc(C3CCN(C(=O)CC4CCCOC4)CC3)cc1)CCO2 (centres unmarked) [Example 7E] |  | 6.71 | 6.52
Cc1ocnc1C(=O)N1CCC(c2ccc(N3CCOc4ncnc(N)c4C3=O)cc2)CC1 [Example 7G] |  | 7.05 | 6.54
Cc1ncoc1C(=O)N1CCC(c2ccc(N3CCOc4ncnc(N)c4C3=O)cc2)CC1 [Example 7K] |  | 6.89 | 6.59
Nc1ncnc2c1C(=O)N(c1ccc(C3CCN(C(=O)CC4CCOC4)CC3)cc1)CCO2 (centres unmarked) [Example 7M] |  | 6.94 | 6.74
Nc1ncnc2c1C(=O)N(c1ccc(C3CCN(C(=O)Cc4ncccn4)CC3)cc1)CCO2 [Example 7N] |  | 6.92 | 6.63
Nc1ncnc2c1C(=O)N(c1ccc(C3CCN(C(=O)CC4CCOCC4)CC3)cc1)CCO2 [Example 7O] |  | 6.86 | 6.43
Nc1ncnc2c1C(=O)N(c1ccc(C3CCN(C(=O)CC4CCCO4)CC3)cc1)CCO2 (centres unmarked) [Example 7R] |  | 7.30 | 6.77
CS(=O)(=O)CC(=O)N1CCC(c2ccc(N3CCOc4ncnc(N)c4C3=O)cc2)CC1 [Example 7T] |  | 6.91 | 6.66
CC(C)[C@H](O)C(=O)N1CCC(c2ccc(N3CCOc4ncnc(N)c4C3=O)cc2)CC1 [Example 7U] |  | 6.69 | 6.53
Cc1cc(C(=O)N2CCC(c3ccc(N4CCOc5ncnc(N)c5C4=O)cc3)CC2)no1 [Example 7V] |  | 6.95 | 6.65
Nc1ncnc2c1C(=O)N(c1ccc(C3CCN(C(=O)C4CCCO4)CC3)cc1)CCO2 (centres unmarked) [Example 7X] |  | 7.05 | 6.80
Nc1ncnc2c1C(=O)N(c1ccc(C3CCN(C(=O)Cc4ccccc4)CC3)cc1)CCO2 [Example 7Y] |  | 7.34 | 7.01
Nc1ncnc2c1C(=O)N(c1ccc(C3CCN(C(=O)C4CCCOC4)CC3)cc1)CCO2 (centres unmarked) [Example 7Z] |  | 6.98 | 6.87
